Test results taken from the NIST ThermoML archive (doi:10.1016/j.jct.2016.03.034).

Assay: xn = mol fraction of the nth substance listed
Settings: 100 kPa, Liquid; for viscosity: Capillary tube (Ostwald / Ubbelohde) method; for mass density: Vibrating tube method

O=C1CCCO1 [γ-butyrolactone] + CCCCCC[n+]1ccn(C)c1.O=S(=O)([N-]S(=O)(=O)C(F)(F)F)C(F)(F)F
Settings	mass density [kg/m3]	viscosity [mPa·s]
293.15 K, x2 = 0	1129.49	1.86
293.15 K, x2 = 0.0507	1176	2.63
293.15 K, x2 = 0.0999	1209.89	3.68
293.15 K, x2 = 0.1544	1238.99	5.32
293.15 K, x2 = 0.1999	1258.54	6.49
293.15 K, x2 = 0.3004	1291.11	10.57
293.15 K, x2 = 0.404	1314.91	–
293.15 K, x2 = 0.5044	1332.2	23.96
293.15 K, x2 = 0.596	1344.4	–
293.15 K, x2 = 0.7027	1355.85	44.32
293.15 K, x2 = 0.8182	1365.51	–
293.15 K, x2 = 0.8924	1370.62	70.24
298.15 K, x2 = 0	1124.59	1.71
298.15 K, x2 = 0.0507	1171.09	2.43
298.15 K, x2 = 0.0999	1204.99	3.32
298.15 K, x2 = 0.1544	1234.06	4.67
298.15 K, x2 = 0.1999	1253.61	5.73
298.15 K, x2 = 0.3004	1286.27	9.16
298.15 K, x2 = 0.404	1310.08	–
298.15 K, x2 = 0.5044	1327.28	19.96
298.15 K, x2 = 0.596	1339.47	–
298.15 K, x2 = 0.7027	1350.79	35.8
298.15 K, x2 = 0.8182	1360.52	–
298.15 K, x2 = 0.8924	1365.62	55.4
303.15 K, x2 = 0	1119.68	1.58
303.15 K, x2 = 0.0507	1166.32	2.18
303.15 K, x2 = 0.0999	1200.4	3
303.15 K, x2 = 0.1544	1229.53	4.08
303.15 K, x2 = 0.1999	1249.21	5.07
303.15 K, x2 = 0.3004	1281.91	7.91
303.15 K, x2 = 0.404	1305.79	–
303.15 K, x2 = 0.5044	1323.05	16.88
303.15 K, x2 = 0.596	1335.25	–
303.15 K, x2 = 0.7027	1346.64	29.15
303.15 K, x2 = 0.8182	1356.39	–
303.15 K, x2 = 0.8924	1361.5	44.29
308.15 K, x2 = 0	1114.78	1.47
308.15 K, x2 = 0.0507	1161.53	1.97
308.15 K, x2 = 0.0999	1195.65	2.74
308.15 K, x2 = 0.1544	1224.8	3.69
308.15 K, x2 = 0.1999	1244.56	4.55
308.15 K, x2 = 0.3004	1277.26	7
308.15 K, x2 = 0.404	1301.16	–
308.15 K, x2 = 0.5044	1318.46	14.47
308.15 K, x2 = 0.596	1330.67	–
308.15 K, x2 = 0.7027	1342.09	25.57
308.15 K, x2 = 0.8182	1351.83	–
308.15 K, x2 = 0.8924	1356.94	36.71
313.15 K, x2 = 0	1109.87	1.37
313.15 K, x2 = 0.0507	1156.54	1.84
313.15 K, x2 = 0.0999	1190.58	2.52
313.15 K, x2 = 0.1544	1219.69	3.34
313.15 K, x2 = 0.1999	1239.41	4.11
313.15 K, x2 = 0.3004	1272	6.23
313.15 K, x2 = 0.404	1295.78	–
313.15 K, x2 = 0.5044	1313.05	12.29
313.15 K, x2 = 0.596	1325.23	–
313.15 K, x2 = 0.7027	1336.62	20.49
313.15 K, x2 = 0.8182	1346.3	–
313.15 K, x2 = 0.8924	1351.37	30.2
318.15 K, x2 = 0	1104.96	1.28
318.15 K, x2 = 0.0507	1151.65	1.7
318.15 K, x2 = 0.0999	1185.71	2.31
318.15 K, x2 = 0.1544	1214.89	3.03
318.15 K, x2 = 0.1999	1234.59	3.7
318.15 K, x2 = 0.3004	1267.16	5.72
318.15 K, x2 = 0.404	1290.94	–
318.15 K, x2 = 0.5044	1308.19	10.74
318.15 K, x2 = 0.596	1320.36	–
318.15 K, x2 = 0.7027	1331.75	17.5
318.15 K, x2 = 0.8182	1341.42	–
318.15 K, x2 = 0.8924	1346.5	25.41
323.15 K, x2 = 0	1100.05	1.2
323.15 K, x2 = 0.0507	1147.03	1.58
323.15 K, x2 = 0.0999	1181.36	2.14
323.15 K, x2 = 0.1544	1210.78	2.69
323.15 K, x2 = 0.1999	1230.51	3.38
323.15 K, x2 = 0.3004	1263.32	5.21
323.15 K, x2 = 0.404	1287.31	–
323.15 K, x2 = 0.5044	1304.67	9.36
323.15 K, x2 = 0.596	1316.95	–
323.15 K, x2 = 0.7027	1328.43	15
323.15 K, x2 = 0.8182	1338.19	–
323.15 K, x2 = 0.8924	1343.3	21.39
